Test results as given in patent US11123355B2, “Antiviral benzyl-amine phosphodiamide compounds” (Merck Sharp & Dohme Corp., priority 2016, dated 2021).
Like-named read-outs stand apart in the source and are kept apart here.

Columns and labels:
[1] = Prodrug Stability Assay in Bio-Relevant Media (FaSSIF with Pancreatin); format: in vitro ADME; conditions: 0.5 mg/mL Pancreatin in FaSSIF, 37° C.; HPLC peak area of prodrug at 5 h divided by that at 0 h
Procedure: Prodrug Stability Assay in Bio-Relevant Media
The following assay was employed to evaluate the stability of the prodrugs in simulated gastrointestinal tract conditions. Preparation of fasted state simulated intestinal fluid (FaSSIF) using Phares SIF Powder was carried out according to protocols from Phare Drug Delivery AG (Baselland, Switzerland). For sample preparation, 10 μL stock solutions (10 mM) of prodrug substance in DMSO was added to 990 μL of 0.5 mg/mL Pancreatin solution (Fisher CAS #8049-47-6) in FaSSIF. Two samples were prepared for each compound. If the sample was a clear solution, it was directly analyzed by HPLC. If the sample was not clear, the sample was diluted with 100% MeCN, maintained at 37° C. and observed 5 h later. If the sample was clear, HPLC analysis was directly performed. If the sample was still not clear, the sample was diluted with 100% ACN and assayed by HPLC. All the samples were vortexed for 3 min and observed before injection. For the diluted samples, the area is multiplied by a dilution factor when the data is analyzed. The analysis was carried out with an Agilent 1100 series HPLC with autosampler. The column was a Poroshell 120 EC-C18, 4.6×50 mm, 2.7 μm. The flow rate was 1.8 mL/min, and the injection volume was 5 or 10 μL. UV detection was in the range 210-400 nm. The mobile phase consisted of solvent A (water plus 10 mM tetrabutylammonium bromide) and solvent B (acetonitrile) with a gradient of: 90% solvent A at 0 min, changing to 95% solvent B over 6 min, maintaining for 1.5 min, then reverting to 90% solvent A over 1.6 min. The HPLC peak area of the prodrug at 5 h was divided by the HPLC peak area of the prodrug at 0 h, to generate the % claimed parent ratio, which is summarized in Table 2 for gastrointestinal (GI) Tract stability.

HIV-1 (H9/IIB strain) = experiment: Multiple Round HIV-1 Infection Assay (Viking Assay) in MT4-GFP cells; format: cell-based; conditions: inhibition of reproductive ratio R0
How it was run: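 Inhibition of the reproductive ratio R0, derived from the rise in GFP-positive cells between ~48 h and ~72 h post-infection, was fitted by 4-parameter regression to give IC50. Cells infected at MOI ~0.01 were exposed to compound (typically 8.4 μM–0.42 nM final) in 10% or 50% normal human serum.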

[2] = Human immunodeficiency virus 1, MT4-GFP cells infected with HIV-1, 10% normal human serum, read-out: Viking, IC50 (10% NHS)
[3] = Human immunodeficiency virus 1, MT4-GFP cells infected with HIV-1, 50% normal human serum, read-out: Viking, IC50 (50% NHS)
[4] = MT4-GFP cells infected with HIV-1, 10% normal human serum, read-out: Viking, IC50 (10% NHS)
[5] = MT4-GFP cells infected with HIV-1, 50% normal human serum, read-out: Viking, IC50 (50% NHS)

Question: For `CCCOC(=O)C(C)(C)NP(=O)(CO[C@H](C)Cn1cnc2c(N)ncnc21)N[C@H](C)c1ccc(Cl)cc1` (single isomer, unassigned) [Example 1B], which “GI Tract stability (%)” value [1] is on record?
Answer: Its value is 98.7%.

Question: And the IC50 (HIV-1 (H9/IIB strain); [2])?
Answer: The IC50 was 0.0047 µM.

Question: And the IC50 (HIV-1 (H9/IIB strain); [3])?
Answer: The IC50 was 0.036 µM.

Question: What does the source list for `CCCOC(=O)C(C)(C)NP(=O)(CO[C@H](C)Cn1cnc2c(N)ncnc21)N[C@H](C)c1ccc(OC(F)(F)F)cc1` (single isomer, unassigned) [Example 3B]?
Answer: GI Tract stability (%) [1]: 99.4%; IC50 (HIV-1 (H9/IIB strain); [2]): 0.0018 µM; IC50 (HIV-1 (H9/IIB strain); [3]): 0.0086 µM

Question: For `CCCOC(=O)C(C)(C)NP(=O)(CO[C@H](C)Cn1cnc2c(N)ncnc21)N[C@H](c1ccc(OC(F)(F)F)cc1)C(F)(F)F` (some centres unmarked) [Example 4A], which “GI Tract stability (%)” value [1] is on record?
Answer: Its value is 95.8%.

Question: What about the IC50 (HIV-1 (H9/IIB strain); [4]) of the same compound?
Answer: Its IC50 is 0.0035 µM.

Question: And the IC50 (HIV-1 (H9/IIB strain); [5])?
Answer: The IC50 was 0.029 µM.

Question: For `CCCOC(=O)C(C)(C)N[P@@](=O)(CO[C@H](C)Cn1cnc2c(N)ncnc21)NCc1ccc(OC(F)(F)F)cc1` [Example 7A, propyl 2-(((R)-((((R)-1-(6-amino-9H-purin-9-yl)propan-2-yl)oxy)methyl)((4-(trifluoromethoxy)benzyl)amino)phos-phoryl)amino)-2-methylpropanoate and propyl 2-(((S)-((((R)-1-(6-amino-9H-purin-9-yl)propan-2-yl)oxy)methyl)((4-(trifluoromethoxy)benzyl)amino)phos-phoryl)amino)-2-methylpropanoate], which “GI Tract stability (%)” value [1] is on record?
Answer: Its value is 96.0%.

Question: What about the IC50 (HIV-1 (H9/IIB strain); [4]) of the same compound?
Answer: The IC50 was 0.0045 µM.

Question: What about the IC50 (HIV-1 (H9/IIB strain); [5]) of the same compound?
Answer: The IC50 was 0.027 µM.

Question: With “isopropyl 2-(((R)-((((R)-1-(6-amino-9H- purin-9-yl)propan-2-yl)oxy)methyl)((2-(4- chlorophenyl)propan-2- yl)amino)phosphoryl)amino)-2- methylpropanoate and isopropyl 2-(((S)-((((R)-1-(6-amino-9H- purin-9-yl)propan-2-yl)oxy)methyl)((2-(4- chlorophenyl)propan-2- yl)amino)phosphoroyl)amino)-2- methylpropanoate [Example 36B]” as the compound, how does the IC50 (HIV-1 (H9/IIB strain); [4]) read?
Answer: The IC50 was 0.2 µM.

Question: What about the IC50 (HIV-1 (H9/IIB strain); [5]) of the same compound?
Answer: Its IC50 is 1.1 µM.

Question: With “propyl 2-(((R)-((((R)-1-(6-amino-9H-purin- 9-yl)propan-2-yl)oxy)methyl)((3- fluorobenzyl)amino)phosphoryl)amino)-2- methylpropanoate and propyl 2-(((S)-((((R)-1-(6-amino-9H-purin- 9-yl)propan-2-yl)oxy)methyl)((3- fluorobenzyl)amino)phosphoryl)amino)-2- methylpropanoate [Example 8A]” as the compound, how does the IC50 (HIV-1 (H9/IIB strain); [4]) read?
Answer: Its IC50 is 0.11 µM.

Question: What about the IC50 (HIV-1 (H9/IIB strain); [5]) of the same compound?
Answer: The IC50 was 0.68 µM.

Question: For “propyl 2-(((R)-((((R)-1-(6-amino-9H-purin- 9-yl)propan-2-yl)oxy)methyl)((3- fluorobenzyl)amino)phosphoryl)amino)-2- methylpropanoate and propyl 2-(((S)-((((R)-1-(6-amino-9H-purin- 9-yl)propan-2-yl)oxy)methyl)((3- fluorobenzyl)amino)phosphoryl)amino)-2- methylpropanoate [Example 8B]”, which IC50 (HIV-1 (H9/IIB strain); [4]) is on record?
Answer: The IC50 was 0.076 µM.

Question: And the IC50 (HIV-1 (H9/IIB strain); [5])?
Answer: Its IC50 is 0.68 µM.

Question: Which results are given for “propyl 2-(((R)-((((R)-1-(6-amino-9H-purin- 9-yl)propan-2-yl)oxy)methyl)((4- cyanobenzyl)amino)phosphoryl)amino)-2- methylpropanoate and propyl 2-(((S)-((((R)-1-(6-amino-9H-purin- 9-yl)propan-2-yl)oxy)methyl)((4- cyanobenzyl)amino)phosphoryl)amino)-2- methylpropanoate [Example 6A]”?
Answer: IC50 (HIV-1 (H9/IIB strain); [4]): 0.07 µM; IC50 (HIV-1 (H9/IIB strain); [5]): 0.66 µM

Question: With “propyl 2-(((R)-((((R)-1-(6-amino-9H-purin- 9-yl)propan-2-yl)oxy)methyl)((4- cyanobenzyl)amino)phosphoryl)amino)-2- methylpropanoate and propyl 2-(((S)-((((R)-1-(6-amino-9H-purin- 9-yl)propan-2-yl)oxy)methyl)((4- cyanobenzyl)amino)phosphoryl)amino)-2- methylpropanoate [Example 6B]” as the compound, how does the IC50 (HIV-1 (H9/IIB strain); [4]) read?
Answer: The IC50 was 0.25 µM.

Question: What about the IC50 (HIV-1 (H9/IIB strain); [5]) of the same compound?
Answer: Its IC50 is 0.85 µM.

Question: With “propyl 2-(((R)-((((R)-1-(6-amino-9H-purin- 9-yl)propan-2-yl)oxy)methyl)((4- isopropylbenzyl)amino)phosphoryl)amino)- 2-methylpropanoate and propyl 2-(((S)-((((R)-1-(6-amino-9H-purin- 9-yl)propan-2-yl)oxy)methyl)((4- isopropylbenzyl)amino)phosphoryl)amino)- 2-methylpropanoate [Example 5B]” as the compound, how does the IC50 (HIV-1 (H9/IIB strain); [4]) read?
Answer: Its IC50 is 0.048 µM.

Question: What about the IC50 (HIV-1 (H9/IIB strain); [5]) of the same compound?
Answer: Its IC50 is 0.24 µM.

Question: With “propyl 2-(((R)-((((R)-1-(6-amino-9H-purin- 9-yl)propan-2-yl)oxy)methyl)(((R)-1-(4- cyanophenyl)-2,2,2- trifluoroethyl)amino)phosphoryl)amino)-2- methylpropanoate and propyl 2-(((S)-((((R)-1-(6-amino-9H-purin- 9-yl)propan-2-yl)oxy)methyl)(((R)-1-(4- cyanophenyl)-2,2,2- trifluoroethyl)amino)phosphoryl)amino)-2- methylpropanoate [Example 23A]” as the compound, how does the IC50 (HIV-1 (H9/IIB strain); [4]) read?
Answer: The IC50 was 0.0061 µM.

Question: And the IC50 (HIV-1 (H9/IIB strain); [5])?
Answer: The IC50 was 0.037 µM.

Question: What does the source list for “propyl 2-(((R)-((((R)-1-(6-amino-9H-purin- 9-yl)propan-2-yl)oxy)methyl)(((R)-1-(4- cyanophenyl)-2,2,2- trifluoroethyl)amino)phosphoryl)amino)-2- methylpropanoate and propyl 2-(((S)-((((R)-1-(6-amino-9H-purin- 9-yl)propan-2-yl)oxy)methyl)(((R)-1-(4- cyanophenyl)-2,2,2- trifluoroethyl)amino)phosphoryl)amino)-2- methylpropanoate [Example 23B]”?
Answer: IC50 (HIV-1 (H9/IIB strain); [4]): 0.047 µM; IC50 (HIV-1 (H9/IIB strain); [5]): 0.14 µM

Question: For “propyl 2-(((R)-((((R)-1-(6-amino-9H-purin- 9-yl)propan-2-yl)oxy)methyl)(((R)-1-(p- tolyl)ethyl)amino)phosphoryl)amino)-2- methylpropanoate and propyl 2-(((S)-((((R)-1-(6-amino-9H-purin- 9-yl)propan-2-yl)oxy)methyl)(((R)-1-(p- tolyl)ethyl)amino)phosphoryl)amino)-2- methylpropanoate [Example 16A]”, which IC50 (HIV-1 (H9/IIB strain); [4]) is on record?
Answer: Its IC50 is 0.083 µM.

Question: And the IC50 (HIV-1 (H9/IIB strain); [5])?
Answer: The IC50 was 0.44 µM.

Question: Which IC50 (HIV-1 (H9/IIB strain); [4]) does the source give for “propyl 2-(((R)-((((R)-1-(6-amino-9H-purin- 9-yl)propan-2-yl)oxy)methyl)(((R)-1-(p- tolyl)ethyl)amino)phosphoryl)amino)-2- methylpropanoate and propyl 2-(((S)-((((R)-1-(6-amino-9H-purin- 9-yl)propan-2-yl)oxy)methyl)(((R)-1-(p- tolyl)ethyl)amino)phosphoryl)amino)-2- methylpropanoate [Example 16B]” here?
Answer: The IC50 was 0.0046 µM.

Question: What about the IC50 (HIV-1 (H9/IIB strain); [5]) of the same compound?
Answer: The IC50 was 0.027 µM.

Question: Which IC50 (HIV-1 (H9/IIB strain); [4]) does the source give for “propyl 2-(((R)-((((R)-1-(6-amino-9H-purin- 9-yl)propan-2-yl)oxy)methyl)(((R)-2,2,2- trifluoro-1-(p- tolyl)ethyl)amino)phosphoryl)amino)-2- methylpropanoate and propyl 2-(((S)-((((R)-1-(6-amino-9H-purin- 9-yl)propan-2-yl)oxy)methyl)(((R)-2,2,2- trifluoro-1-(p- tolyl)ethyl)amino)phosphoryl)amino)-2- methylpropanoate [Example 26B]” here?
Answer: The IC50 was 0.034 µM.

Question: And the IC50 (HIV-1 (H9/IIB strain); [5])?
Answer: The IC50 was 0.2 µM.

Question: For “propyl 2-(((R)-((((R)-1-(6-amino-9H-purin- 9-yl)propan-2-yl)oxy)methyl)(((S)-1-(p- tolyl)ethyl)amino)phosphoryl)amino)-2- methylpropanoate and propyl 2-(((S)-((((R)-1-(6-amino-9H-purin- 9-yl)propan-2-yl)oxy)methyl)(((S)-1-(p- tolyl)ethyl)amino)phosphoryl)amino)-2- methylpropanoate [Example 18A]”, which IC50 (HIV-1 (H9/IIB strain); [4]) is on record?
Answer: Its IC50 is 0.013 µM.

Question: What about the IC50 (HIV-1 (H9/IIB strain); [5]) of the same compound?
Answer: Its IC50 is 0.14 µM.

Question: Which IC50 (HIV-1 (H9/IIB strain); [4]) does the source give for “propyl 2-(((R)-((((R)-1-(6-amino-9H-purin- 9-yl)propan-2-yl)oxy)methyl)(((S)-1-(p- tolyl)ethyl)amino)phosphoryl)amino)-2- methylpropanoate and propyl 2-(((S)-((((R)-1-(6-amino-9H-purin- 9-yl)propan-2-yl)oxy)methyl)(((S)-1-(p- tolyl)ethyl)amino)phosphoryl)amino)-2- methylpropanoate [Example 18B]” here?
Answer: Its IC50 is 0.037 µM.

Question: And the IC50 (HIV-1 (H9/IIB strain); [5])?
Answer: Its IC50 is 0.52 µM.
